Assays:
[1] = intranasal; greater than those produced by hydrocortisone; cited from earlier work
endothelial cell lines = experiment: Microarray expression analysis of endothelial cell lines treated with TNF-α; assay type: cell-based, human; details: 10 ng/ml TNF-α, within four hours; in five out of the eight endothelial cell lines
dendritic cells = experiment: Microarray expression analysis during differentiation and maturation of dendritic cells; assay type: cell-based, human; details: maturation of dendritic cells induced by TNF-alpha, versus immature dendritic cells (Lci)
Procedure: Human CD34 positive precursor cells were isolated by positive immunomagnetic selection from the leukapheresis of normal volunteer donors who had undergone G-CSF-induced stem cell mobilization. The purified CD34+ cells were cultured in vitro for 10 days in the presence of recombinant GM-CSF, Stem Cell Factor, TNF-alpha, TGF-beta1, and Flt3-Ligand. The resulting expanded cell population was enriched for cell cluster-forming immature dendritic cells (Lci) by sedimentation over a 7.5% BSA column at 1 g for 30 min. Immature dendritic cells were cultured for two additional days in the presence of the same combination of cytokines supplemented with LPS, IL-1beta, TNF-alpha, or double strand RNA. In addition, cluster-forming immature dendritic cells were disrupted by vigorous pipetting and cultured for two additional days in the presence of the same combination of cytokines without addition of any additional factor. The partially mature dendritic cells derived by mechanical disruption of cell clusters are characterized by the presence of intracellular rod-shaped structures called Birbeck's Granules. The dendritic cell population produced using this method was called Birbeck's Granule-positive dendritic cells, or BG. […]

[2] = system: human umbilical vein endothelial cells (HVECs); details: TNF-α treated compared with untreated cells; cited from earlier work
[3] = system: vascular smooth muscle cells (SMCs); details: cited from earlier work
[4] = system: bovine aortic endothelial cells; details: confluent cells; cited from earlier work
[5] = system: human fibroblastic IMR-90 cells; details: cited from earlier work

Compound	anti-inflammatory and vasoconstrictive effects relative to hydrocortisone [1] [times]	expression of SEQ ID NO:58 (endothelial cell lines)	expression of SEQ ID NO:96 (dendritic cells)	increase of cellular secretions of MCP-1 [2] [fold]	relative proportion of collagen types IV and V [3]	incorporation of [3H]proline into collagenase-digestible proteins (CDP) and noncollagenous proteins (NCP) ([3]; confluent cultures)	suppression of [3H]proline incorporation [4]	suppression of [3H]proline incorporation [5]
C[C@H]1C[C@H]2[C@@H]3CCC4=CC(=O)C=C[C@]4(C)[C@@]3(Cl)[C@@H](O)C[C@]2(C)[C@@]1(O)C(=O)CO [beclomethasone, Beclomethasone]	5000							
TNF-α		downregulated by at least two-fold	greater than two-fold expression	119	decreases	suppresses	not observed	not observed

Reference: patent US20040249128A1, “Molecules for disease detection and treatment” (priority 2001, published 2004)
